# Measured values: patent US20260306463A1, “SIK INHIBITORS TO TREAT CHRONIC KIDNEY DISEASE” (The General Hospital Corporation, priority 2023, published 2026)
# Assays:
# [1] = test system: YAP/TAZ responsive reporter; assay: YAP/TAZ responsive luciferase reporter assay; type: cell-based, mouse (NIH3T3 cells); conditions: 24 hours; for TGFß-stimulated YAP/TAZ reporter activity: TGFß stimulation
# Procedure: FIGS. 14A-14E. SIK pathway controls YAP/TAZ-dependent myofibroblast activation in kidney Gli1 cells. KGlil cells were treated as indicated for 48 hours followed by (A) immunoblotting and (B) RT-qPCR. (C) KGlil cells were treated±TGFß (5 ng/mL) or verteporfin (1 μM) for 48 hours followed by imnunoblotting. (D) Luciferase assay from cells were transfected with a YAP/TAZ responsive reporter. SIK inhibitor and forskolin both block basal and TGFß-stimulated-YAP/TAZ reporter activity. (E) Top, KGlil cells were treated for 24 hours as indicated followed by immunoblotting. Bottom, kidney lysates from adenine diet CKD mice were analyzed by immunoblotting as indicated.
# To assess the signal of YAP/TAZ responsive reporter, the mouse fibroblast cell line NIH3T3 cells were transfected 24 hours after plating at 50,000 cells/ml in a 10 cm dish by using 15 μl Polyjet transfection reagent (SignaGen Laboratories, SL100688) and 5 μg of 8xGTIIC-luciferase construct. 48 hours after, the cells were then trypsinized and plated on a black 96-well plate and treated the next day for 24 hours. The luciferase and renilla signals were read using Renilla Luciferase Assay System kit (Promega, E2810) and EnVision plate reader (PerkinElmer).
# human kidney organoids = assay: cisplatin injury of human kidney organoids: immunostaining, organoid size; type: cell-based; conditions: intermittent cisplatin, 5 treatments
# Procedure: FIG. 7. SK-124 preserves human kidney organoid integrity in cisplatin injury model. Human kidney organoids derived from H9 embryonic stem cells were treated with intermittent cisplatin (5 separate treatments) based on published protocols along with the indicated agent. Organoids were cryo-sectioned and immuno-stained with the indicated markers. The top panels show low power images and the bottom panels focus on regions of proximal tubule cells. The graph measures the mean diameter of organoids in the control (no cisplatin), cisplatin+DMSO, and cisplatin+SK-124 treatment groups.
# BJFF human induced pluripotent stem cells (hPSCs) were maintained on Geltrexcoated (Thermo Fisher Scientific) plates using StemFit Basic04 Complete (Ajinomoto Co. Inc.) as previously reported(25). The cells were passaged weekly using Accutase (STEMCELL Technologies) for dissociation and Y27632 (Tocris) for adhesion. Directed differentiation of hPSCs into kidney organoids has been published elsewhere (29). Briefly, hPSCs were differentiated into metanephric mesenchyme cells on day 8 by a three-step directed differentiation protocol. Metanephric mesenchyme was transferred into suspension culture in 96-well ultralow adhesion plates (Coming) and further differentiated into kidney organoids, as previously reported(25). Quality control measures of SIX2 immunostaining on day 8 of differentiation and CDH1, LTL, PODXL, CD146, MEIS1/2/3, and SYTOX-blue staining on day 21 were performed on all batches of kidney organoids to limit batch-to-batch heterogeneity. Kidney organoids were maintained in 200 μl of basal media consisting of Advanced RPMI (Thermo Fisher Scientific) and GlutaMAX (Thermo Fisher Scientific) in 96-well plates, as previously reported. Media changes were conducted three times weekly with removal of 90 [l and addition of 100 μl of fresh basal media.
# For cisplatin induced injury, day 49 organoids were treated with 5 μM cisplatin in basal media after full media change. After 24 hours, full media exchanges were performed. This 24-hour treatment was performed twice a week, on day 52-53, day 56-57, day 59-60, and day 63-64 as well, for a total of five cisplatin treatments. Samples were obtained for RT-qPCR and immunostaining immediately following each 24-hour treatment with cisplatin, and from corresponding controls.
# Following the treatment, the organoids were collected and immediately fixed in 4% PFA in PBS for 1 hour at room temperature, submerged in 30% sucrose overnight at 4° C., then embedded in O.C.T. Compound (4585. Fisher HealthCare). Subsequently, […] frozen sections were prepared via cryo-sectioning by a cryostat. After 1 hr blocking at room temperature, the sections were treated overnight at 4° C. with primary antibodies in antibody dilution buffer (ADB) with biotinylated LTL (1:200, B-1325, Vector), rat anti-CDH1 (1:500, ab11512, Abcam), goat anti-PODXL (1:500, AF1658, R&D Systems), as well as the antibody of interest, either mouse anti-p21 (1:200, NBP2-43697, Novus Biologicals), or rabbit anti-γH2AX (1:100, 2577, Cell Signaling) antibodies. For the optimum labeling of LTL by biotin/streptavidin interaction, the Streptavidin/Biotin Blocking Kit (SP-2002, Vector Laboratories) was applied according to the manufacturer's instructions. After washing, the samples were stained for 1 hour at RT with the nuclear dye-SYTOX Blue (1:500. S 11348, Invitrogen) and the corresponding secondary antibodies in ADB such as streptavidin-AF750 (1:500, S21384, Invitrogen), donkey anti-rat IgG-AF594 (1:500, A21209, Invitrogen), donkey anti-goat IgG-AF555 (1:500, A21432, Invitrogen), and donkey anti-rabbit IgG-AF488 (1:500, A21206, Invitrogen) for γH2AX or donkey anti-mouse IgG-AF488 (1:500, A21202, Invitrogen) for p21 antibodies as well as mouse anti-Meisl/⅔ (1:200, sc-101850, SantaCruz) conjugated antibody, and slides were mounted with Vectashield antifade mounting medium (H1000, Vector Laboratories). […]
# kidney = conditions: literature (ref. 21); cited from earlier work
Compound,basal YAP/TAZ reporter activity [1],TGFß-stimulated YAP/TAZ reporter activity [1],patterns of cisplatin-induced injury (human kidney organoids),anti-fibrotic effects in kidney (kidney)
"C=C[C@@]1(C)CC(=O)[C@]2(O)[C@@]3(C)[C@@H](O)CCC(C)(C)[C@@H]3[C@H](O)[C@H](OC(C)=O)[C@@]2(C)O1 [forskolin, reference compound]",block,block,,
"2-[2,6-Dimethoxy-4-[7-(1-methylpyrazol-4-yl)imidazo[1,2-a]pyridin-3-yl]phenyl]-5-ethyl-1,3,4-oxadiazole [SK-124]",block,block,,
"C=C1/C(=C\C=C2/CCC[C@]3(C)[C@@H]([C@H](C)CCCC(C)(C)O)CC[C@@H]23)C[C@@H](O)C[C@@H]1O [calcitriol, 1,25-dihydroxy-vitamin D, reference compound]",,,minimal effects,anti-fibrotic effects in kidney
